Laboratory results: patent publication US9018200B2, “Substituted piperidinyl compounds useful as GPR119 agonists” (Merck Sharp & Dohme Corp., priority 2011, dated 2015)
Like-named read-outs stand apart in the source and are kept apart here.

Molecular target: T1, human GPR119 (Homo sapiens, UniProt Q8TDV5)
T1 sequence (Q8TDV5 1-308 limits assumed): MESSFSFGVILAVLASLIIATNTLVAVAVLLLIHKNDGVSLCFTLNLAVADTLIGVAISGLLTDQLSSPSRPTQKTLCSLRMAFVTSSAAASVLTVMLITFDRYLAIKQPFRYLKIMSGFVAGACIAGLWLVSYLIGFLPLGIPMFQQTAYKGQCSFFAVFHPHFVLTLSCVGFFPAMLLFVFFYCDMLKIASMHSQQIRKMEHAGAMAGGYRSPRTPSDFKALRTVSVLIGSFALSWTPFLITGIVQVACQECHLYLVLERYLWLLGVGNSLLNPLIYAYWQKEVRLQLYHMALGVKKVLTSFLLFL
Assay: Measurement of GPR119 signaling (cAMP assay) in HEK 293 cells stably transfected with human GPR119
Format: cell-based
Source text: Measurement of GPR119 Signaling (Cyclic AMP (cAMP) Assay)
Human embryonic kidney (HEK) 293 cell lines stably transfected with human GPR119 were maintained in Dulbecco's Modified Eagle Medium (DMEM) containing fetal bovine serum (FBS), penicillin-streptomycin, HEPES buffer (4-(2-hydroxyethyl)-1-piperazineethane sulfonic acid), and hygromycin. For the cAMP assay, the transfected cells were harvested using a non-enzymatic cell dissociation solution (GIBCO 2672), pelleted and resuspended in stimulation buffer (DMEM, 25 mM HEPES, 0.1% bovine serum albumin (BSA), pH 7.4 in the presence of 100 μM phosphodiesterase inhibitors). The adenylate cyclase assay was constructed following the LANCE™ cAMP Kit (Perkin Elmer, AD0264) instructions.
Briefly, cells with Alexa Fluor® 647-anti cAMP antibody were incubated with 10 point series diluted test article in stimulation buffer with a final concentration of 2.5% DMSO for 45 minutes. The reaction was stopped by incubating with the supplied detection buffer containing the europium chelate of the Eu-SA/Biotin-cAMP tracer for 3 hours. The assay was performed in duplicate in a 384 well plate for duplicate plates and fluorescence was measured at 665 nm. Basal activity was determined using a DMSO control and maximum response was defined as cAMP stimulation produced by an internal agonist control. Standard cAMP concentrations were assayed concurrently for conversion of fluorescence signal to cAMP level. The data was analyzed using 4-parameter curve fit in Microsoft Excel. […]

Row | Structure (SMILES) | EC50 (table of Examples 5-56) [nM] | EC50 [nM]
1 | CS(=O)(=O)c1ccc(OCC[C@@H]2C[C@@H]2C2CCN(CC(F)(F)F)CC2)cc1 [Example 36] | 176 | –
2 | FC(F)(F)C(F)(F)CN1CCC([C@H]2C[C@H]2CCOc2ccc(-n3cncn3)cc2)CC1 [Example 50] | 26.9 | –
3 | CS(=O)(=O)c1ccc(OCC[C@@H]2C[C@@H]2C2CCN(CC(F)(F)F)CC2)cc1 [Example 4, 4-[(1R,2S)-2-{2-[4-(Methylsulfonyl)phenoxy]ethyl}cyclopropyl]-1-(2,2,2-trifluoroethyl)piperidine] | – | 176
4 | COC(=O)c1c(F)cc(OCC[C@@H]2C[C@@H]2C2CCN(CC(F)(F)F)CC2)cc1F [Example 51] | 28.7 | –
5 | O=C1Cc2cc(OCC[C@@H]3C[C@@H]3C3CCN(CC(F)(F)F)CC3)ccc2N1 [Example 39] | 270 | –
6 | Cc1cc(OCC[C@@H]2C[C@@H]2C2CCN(CC(F)(F)F)CC2)cc(C#N)n1 [Example 37] | 199 | –
7 | CS(=O)(=O)c1ccc(OCC[C@@H]2C[C@@H]2C2CCN(CC(F)(F)F)CC2)nc1 [Example 27] | 27.8 | –
8 | O=C(c1c(F)cc(OCC[C@@H]2C[C@@H]2C2CCN(CC(F)(F)F)CC2)cc1F)N1CC(F)(F)C1 [Example 31] | 45.8 | –
9 | O=C(NC1CCOCC1)c1c(F)cc(OCC[C@@H]2C[C@@H]2C2CCN(CC(F)(F)F)CC2)cc1F [Example 34] | 77.3 | –
10 | CS(=O)(=O)c1c(F)cc(COC[C@@H]2C[C@@H]2C2CCN(CC(F)(F)F)CC2)cc1F [Example 55] | 568 | –
11 | Cc1nc(C#N)cc(OCC[C@@H]2C[C@@H]2C2CCN(CC(F)(F)F)CC2)n1 [Example 35] | 126 | –
12 | COC(=O)c1c(F)cc(OCC[C@@H]2C[C@@H]2C2CCN(CC(F)(F)F)CC2)cc1F [Example 1, Methyl 2,6-difluoro-4-(2-{(1S,2R)-2-[1-(2,2,2-trifluoroethyl)piperidin-4-yl]cyclopropyl}ethoxy)benzoate] | – | 28.7
13 | O=C(NC1CC1)c1ccc(OCC[C@@H]2C[C@@H]2C2CCN(CCC(F)(F)F)CC2)cc1F [Example 41] | 59.3 | –
14 | FC(F)(F)C(F)(F)CN1CCC([C@H]2C[C@H]2CCOc2ccc(-n3cnnn3)cc2)CC1 [Example 49] | 24.2 | –
15 | O=C(c1ccc(OCC[C@@H]2C[C@@H]2C2CCN(CC(F)(F)F)CC2)cc1F)N1CCC(O)C1 (some centres unmarked) [Example 38] | 257 | –
16 | CC(=O)c1ccc(OCC[C@@H]2C[C@@H]2C2CCN(CC(F)(F)C(F)(F)F)CC2)cc1F [Example 44] | 51.6 | –
17 | Cc1nnc(-c2ccc(OCC[C@@H]3C[C@@H]3C3CCN(CC(F)(F)F)CC3)cc2F)o1 [Example 54] | 59.5 | –
18 | COCCNC(=O)c1c(F)cc(OCC[C@@H]2C[C@@H]2C2CCN(CC(F)(F)F)CC2)cc1F [Example 33] | 68 | –
19 | Cc1nc(-c2ccc(OCC[C@@H]3C[C@@H]3C3CCN(CC(F)(F)C(F)(F)F)CC3)cc2)no1 [Example 52] | 40.8 | –
20 | O=C(NC1CC1)c1c(F)cc(OCC[C@@H]2C[C@@H]2C2CCN(CC(F)(F)F)CC2)cc1F [Example 3, N-Cyclopropyl-2,6-difluoro-4-(2-{(1S,2R)-2-[1-(2,2,2-trifluoroethyl)piperidin-4-yl]cyclopropyl}ethoxy)benzamide] | – | 5.28
21 | CC(F)(F)CN1CCC([C@H]2C[C@H]2CCOc2ccc(S(C)(=O)=O)cn2)CC1 [Example 40] | 776 | –
22 | CCC(F)(F)CN1CCC([C@H]2C[C@H]2CCOc2cc(F)c(S(C)(=O)=O)c(F)c2)CC1 [Example 28] | 35.3 | –
23 | CC(C)(C)NC(=O)c1ccc(OCC[C@@H]2C[C@@H]2C2CCN(CC(F)(F)F)CC2)cc1F [Example 53] | 57.9 | –

The remaining lines, values ahead:

Row | EC50 (table of Examples 5-56) [nM] | EC50 [nM] | Structure (SMILES)
24 | 7.31 | – | Cc1nnc(-c2ccc(OCC[C@@H]3C[C@@H]3C3CCN(CC(F)(F)C(F)(F)F)CC3)cc2F)o1 [Example 46]
25 | 18.4 | – | CC(C)(O)C1CCCN(C(=O)c2ccc(OCC[C@@H]3C[C@@H]3C3CCN(CC(F)(F)C(F)(F)F)CC3)cc2F)C1 (some centres unmarked) [Example 23]
26 | 13.4 | – | C=CCCC(=O)c1ccc(OCC[C@@H]2C[C@@H]2C2CCN(CC(F)(F)C(F)(F)F)CC2)cc1F [Example 56]
27 | 3.16 | – | O=C(NC1CC1)c1ccc(OCC[C@@H]2C[C@@H]2C2CCN(CC(F)(F)C(F)F)CC2)cc1F [Example 11]
28 | 7.13 | – | O=C1Cc2cc(OCC[C@@H]3C[C@@H]3C3CCN(CC(F)(F)C(F)(F)F)CC3)cc(F)c2N1 [Example 43]
29 | 12.2 | – | CC(C)(C)NC(=O)c1c(F)cc(OCC[C@@H]2C[C@@H]2C2CCN(CC(F)(F)F)CC2)cc1F [Example 19]
30 | 4.35 | – | CS(=O)(=O)c1ccc(OCC[C@@H]2C[C@@H]2C2CCN(CC(F)(F)C(F)(F)F)CC2)cc1F [Example 14]
31 | 5.28 | – | O=C(NC1CC1)c1c(F)cc(OCC[C@@H]2C[C@@H]2C2CCN(CC(F)(F)F)CC2)cc1F [Example 15]
32 | 5.34 | – | CCC(F)(F)CN1CCC([C@H]2C[C@H]2CCOc2ccc(C(=O)NC3CC3)c(F)c2)CC1 [Example 16]
33 | 3.69 | – | O=C(NCc1cnoc1)c1ccc(OCC[C@@H]2C[C@@H]2C2CCN(CC(F)(F)C(F)(F)F)CC2)cc1F [Example 12]
34 | 5.38 | – | O=C(NCCO)c1ccc(OCC[C@@H]2C[C@@H]2C2CCN(CC(F)(F)C(F)(F)F)CC2)cc1F [Example 17]
35 | 1.6 | – | O=C(NCC1CCCO1)c1ccc(OCC[C@@H]2C[C@@H]2C2CCN(CC(F)(F)C(F)(F)F)CC2)cc1F (some centres unmarked) [Example 8]
36 | 22.5 | – | CCC(F)(F)CN1CCC([C@H]2C[C@H]2CCOc2ccc(S(C)(=O)=O)c(F)c2)CC1 [Example 25]
37 | 0.43 | – | CCC(F)(F)CN1CCC([C@H]2C[C@H]2CCOc2cc(F)c(C(=O)NC3CC3)c(F)c2)CC1 [Example 5]
38 | 1.65 | – | CCC(F)(F)CN1CCC([C@H]2C[C@H]2CCOc2cc(F)c(C(=O)C3CC3)c(F)c2)CC1 [Example 45]
39 | 3.83 | – | CC(C)(C)NC(=O)c1ccc(OCC[C@@H]2C[C@@H]2C2CCN(CC(F)(F)C(F)(F)F)CC2)cc1F [Example 13]
40 | 14 | – | CS(=O)(=O)c1ccc(OCC[C@@H]2C[C@@H]2C2CCN(CC(F)(F)C(F)(F)F)CC2)nc1 [Example 21]
41 | 13.4 | – | O=C(c1ccc(OCC[C@@H]2C[C@@H]2C2CCN(CC(F)(F)C(F)(F)F)CC2)cc1F)N1CCC(O)C1 (some centres unmarked) [Example 20]
42 | 16.7 | – | O=C(NC1CC1)c1ccc(OCC[C@@H]2C[C@@H]2C2CCN(CC(F)(F)F)CC2)cc1F [Example 22]
43 | 1.2 | – | CCC(F)(F)CN1CCC([C@H]2C[C@H]2CCOc2cc(F)c(C(=O)NC3(C)CC3)c(F)c2)CC1 [Example 7]
44 | 23.6 | – | CS(=O)(=O)c1ccc(OCC[C@@H]2C[C@@H]2C2CCN(CC(F)(F)C(F)(F)F)CC2)cc1 [Example 26]
45 | 2.34 | – | CC(C)(CN1CCC([C@H]2C[C@H]2CCOc2ccc(C(=O)NC3CC3)c(F)c2)CC1)C(F)(F)F [Example 42]
46 | 20.3 | – | O=C(NC1CC(F)(F)C1)c1c(F)cc(OCC[C@@H]2C[C@@H]2C2CCN(CC(F)(F)F)CC2)cc1F [Example 24]
47 | 2.34 | – | CC(C)(CO)NC(=O)c1ccc(OCC[C@@H]2C[C@@H]2C2CCN(CC(F)(F)C(F)(F)F)CC2)cc1F [Example 9]
48 | 3.02 | – | O=C(NCC1(O)CC1)c1ccc(OCC[C@@H]2C[C@@H]2C2CCN(CC(F)(F)C(F)(F)F)CC2)cc1F [Example 10]
49 | 0.52 | – | O=C(NC1CC1)c1ccc(OCC[C@@H]2C[C@@H]2C2CCN(CC(F)(F)C(F)(F)F)CC2)cc1F [Example 6]
50 | 5.87 | – | O=C(NC1CC1(F)F)c1c(F)cc(OCC[C@@H]2C[C@@H]2C2CCN(CC(F)(F)F)CC2)cc1F (some centres unmarked) [Example 18]
